Measurements published in publication PMC9503898, “Synthesis and Evaluation of Two Long-Acting SSTR2 Antagonists for Radionuclide Therapy of Neuroendocrine Tumors” (Pharmaceuticals, 2022).
One block for each compound: values may come before it. Positions of bridges follow the written chain, without caps; N, C: chain ends. Non-standard residues stand in square brackets, D forms with d. Residues, ends and D or L forms follow the SMILES beside them. *: point of attachment. DOTA = O=C(O)CN1CCN(CC(=O)O)CCN(CC(=O)*)CCN(CC(=O)O)CC1; dPhe(4-NHCONH2) = NC(=O)Nc1ccc(C[C@@H](N)C(=O)O)cc1; Butanoyl(4-(4-MeO-phenyl)) = COc1ccc(CCCC(=O)*)cc1; Butanoyl(4-(4-I-phenyl)) = O=C(CCCc1ccc(I)cc1)*; Dihydroorotyl(S) = O=C1C[C@@H](C(=O)*)NC(=O)N1; Phe(4-Cl) = N[C@@H](Cc1ccc(Cl)cc1)C(=O)O; Phe(4-NH2) = Nc1ccc(C[C@H](N)C(=O)O)cc1

Key:
[1] = biological target: T1, SSTR2 receptor (U2OS-SSTR2 cells) (Homo sapiens, UniProt P30874); assay: Competitive binding assay against [^177Lu]Lu-JR11; conditions: radioligand [^177Lu]Lu-JR11 10^−9 M, unlabeled compound 10^−12 to 10^−5 M, 90 min, 37 °C, triplicate
T1 construct: expressed in transfected cells; host or cells: U2OS human osteosarcoma cells stably expressing SSTR2
Method: Human osteosarcoma cells (U2OS) stably expressing the SSTR2 receptor were used in all in vitro cell assays. Cells were cultured in Dulbecco’s modified Eagle’s medium (DMEM) from Gibco (Paisley, UK) supplemented with 2 mM L-glutamine, 10% fetal bovine serum (FBS), 50 units/mL penicillin, and 50 μg/mL streptomycin (Sigma Aldrich; Haarlerbergweg, The Netherlands) and maintained at 37 °C and in a 5% CO2 humidified chamber. Passages were performed weekly using trypsin/EDTA (0.05%/0.02% w/v).
Competitive binding experiments against [^177Lu]Lu-JR11 were performed with 8a and 8b in U2OS-SSTR2 cells. Cells were seeded in a 24-well plate 24 h in advance (2 × 10^5 cells/well). On the day of the experiment, medium was removed, and the cells were washed once with PBS (Gibco). Then, solutions containing unlabeled compound 8a or 8b in increasing concentrations (10^−12 to 10^−5 M) in internalization medium (DMEM media, 20 mM HEPES, 1% BSA, pH 7.4) were added, followed by the addition of [^177Lu]Lu-JR11 (10^−9 M). For each concentration, experiments were performed in triplicate. Cells were incubated at 37 °C for 90 min. After incubation, medium was removed, and cells were washed once with PBS and lysed with 0.5 M sodium hydroxide (NaOH) for 10 min at rt. The lysate was transferred to counting tubes, and measurement was performed using the γ-counter.

Stability in PBS = assay type: physicochemical; conditions: % intact radiolabeled ligand, ~3 MBq in PBS (300 μL), 37 °C, radio-HPLC, n = 1
Method: (§1) The ^177Lu-labeled compounds (~3 MBq) were incubated in PBS (300 μL) at 37 °C. The stability of the radiolabeled peptides was verified by radio-HPLC at 1, 4, and 24 h. The stability in serum was determined by incubating the radiolabeled compounds (~3 MBq) into 150 μL of mouse serum (Merck; Haarlerbergweg, The Netherlands) at 37 °C. At 1, 4, and 24 h post-incubation, the proteins were precipitated by adding an aliquot of 35 μL of the mixture to an equal volume of ACN. The vial was vortexed and centrifuged for 20 min. stability was monitored by radio-HPLC (Figures S4 and S5).

Stability in mouse serum = assay type: in vitro ADME; conditions: % intact radiolabeled ligand, ~3 MBq in 150 μL mouse serum, 37 °C, ACN protein precipitation, radio-HPLC, n = 1
Method: as §1

[2] = Determination of lipophilicity (LogD7.4, shake-flask); assay type: physicochemical; conditions: n-octanol/PBS (1:1), pH 7.4, PBS/n-octanol 1:1 (1 mL), ~1.5 MBq, gamma counter, n = 3 (triplicate), mean ± SEM, read-out: Log D7.4
Method: The distribution coefficient (LogD7.4) of the ^177Lu-labeled peptides was determined by the shake-flask method. For each radioligand, the experiment was performed in triplicate. The radiolabeled compound (~1.5 MBq) was added to a solution of phosphate buffered saline (PBS)/n-octanol (1 mL, v:v = 1:1) in eppendorf vials. The vials were vortexed vigorously and centrifuged at 10,000 rpm for 3 min. The n-octanol phase was separated from the aqueous phase, poured into new vials, and centrifuged for 15 min. Samples from each phase (10 μL) were measured using a gamma counter. The LogD7.4 value was calculated using the following equation: […].

In vivo SPECT/CT imaging = conditions: mouse, H69 xenograft tumor, iv, 20 MBq/0.5 nmol per animal, total radioactivity
[3] = tested on: mice bearing SSTR2-positive H69 xenografts; assay: In vivo SPECT/CT imaging; conditions: H69 xenograft mice, i.v. 20 MBq/0.5 nmol, n = 4
human albumin = human albumin (Homo sapiens, UniProt P02768); assay: Albumin binding properties (ultrafiltration); conditions: ~1 MBq in human albumin/PBS (500 µL, v:v = 1:4), 1 h, 37 °C; Centrifree ultrafiltration 30 KDa; gamma counter; n = 3, mean ± SEM
Sequence of human albumin (P02768 25-609): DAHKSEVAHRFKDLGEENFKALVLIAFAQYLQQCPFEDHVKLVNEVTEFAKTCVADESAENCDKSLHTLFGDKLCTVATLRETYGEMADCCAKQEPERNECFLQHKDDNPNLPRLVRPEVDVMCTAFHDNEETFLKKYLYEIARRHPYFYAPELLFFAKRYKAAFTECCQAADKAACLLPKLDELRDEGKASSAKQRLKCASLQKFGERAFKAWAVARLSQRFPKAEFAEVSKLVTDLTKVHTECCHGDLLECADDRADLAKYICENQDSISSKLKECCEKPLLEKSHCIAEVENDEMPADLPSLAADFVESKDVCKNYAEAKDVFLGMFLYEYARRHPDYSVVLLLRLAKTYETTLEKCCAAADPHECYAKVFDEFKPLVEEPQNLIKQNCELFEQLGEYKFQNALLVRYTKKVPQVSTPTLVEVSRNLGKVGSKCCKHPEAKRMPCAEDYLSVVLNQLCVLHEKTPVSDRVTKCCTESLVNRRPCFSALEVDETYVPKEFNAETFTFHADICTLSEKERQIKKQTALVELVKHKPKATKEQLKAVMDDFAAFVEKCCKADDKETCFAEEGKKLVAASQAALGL

T1 sequence (P30874 whole entry): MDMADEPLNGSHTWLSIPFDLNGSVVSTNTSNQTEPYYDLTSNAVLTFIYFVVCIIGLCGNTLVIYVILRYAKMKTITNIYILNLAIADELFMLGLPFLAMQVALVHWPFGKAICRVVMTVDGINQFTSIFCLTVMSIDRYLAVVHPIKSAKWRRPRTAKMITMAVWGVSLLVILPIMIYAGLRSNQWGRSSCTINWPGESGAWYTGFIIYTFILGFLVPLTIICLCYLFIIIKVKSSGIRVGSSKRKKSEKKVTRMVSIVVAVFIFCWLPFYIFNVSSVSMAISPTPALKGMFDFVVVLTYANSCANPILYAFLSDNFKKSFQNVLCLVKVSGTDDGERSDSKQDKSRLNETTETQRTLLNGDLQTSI

- IC50 [1]: 2.7 ± 0.26 nM
Compound: C[C@@H](O)[C@@H]1NC(=O)[C@H](CCCCN)NC(=O)[C@@H](Cc2ccc(NC(N)=O)cc2)NC(=O)[C@H](Cc2ccc(NC(=O)[C@@H]3CC(=O)NC(=O)N3)cc2)NC(=O)[C@H](NC(=O)[C@H](Cc2ccc(Cl)cc2)NC(=O)CN2CCN(CC(=O)O)CCN(CC(=O)O)CCN(CC(=O)O)CC2)CSSC[C@@H](C(=O)N[C@H](Cc2ccc(O)cc2)C(N)=O)NC1=O [JR11, reference compound] ({DOTA}-[Phe(4-Cl)][dC][Phe(4-NH2)](Dihydroorotyl(S))[dPhe(4-NHCONH2)]KTC[dY]-NH2; disulfide 2-7)

- IC50 [1]: 80 ± 0.43 nM
Compound: C[C@@H](O)[C@@H]1NC(=O)[C@H](CCCCN)NC(=O)[C@@H](Cc2ccc(NC(N)=O)cc2)NC(=O)[C@H](Cc2ccc(NC(=O)[C@@H]3CC(=O)NC(=O)N3)cc2)NC(=O)[C@H](NC(=O)[C@H](Cc2ccc(Cl)cc2)NC(=O)[C@H](CCCCNC(=O)CCCc2ccc(I)cc2)NC(=O)CN2CCN(CC(=O)O)CCN(CC(=O)O)CCN(CC(=O)O)CC2)CSSC[C@@H](C(=O)N[C@H](Cc2ccc(O)cc2)C(N)=O)NC1=O [8a, DOTA-Lys(4-(p-iodophenyl)butyryl)-Phe(4-Cl)-c[D-Cys-Aph(Hor)-D-Aph(Cbm)-Lys-Thr-Cys]-D-Tyr-NH2] ({DOTA}-K(Butanoyl(4-(4-I-phenyl)))[Phe(4-Cl)][dC][Phe(4-NH2)](Dihydroorotyl(S))[dPhe(4-NHCONH2)]KTC[dY]-NH2; disulfide 3-8)

- Stability in PBS (%) 1 h (Stability in PBS; 1 h): 97.1%
- Stability in PBS (%) 4 h (Stability in PBS; 4 h): 96.4%
- Stability in PBS (%) 24 h (Stability in PBS; 24 h): 95.4%
- remaining at 1 h (Stability in mouse serum; 1 h): 98%
- remaining at 4 h (Stability in mouse serum; 4 h): 97.9%
- remaining at 24 h (Stability in mouse serum; 24 h): 98.5%
- logD [2]: -2.07 ± 0.02
- tissue uptake per volume at 4 h (In vivo SPECT/CT imaging): 2.7 ± 0.2 %ID/mL
- tissue uptake per volume at 24 h (In vivo SPECT/CT imaging): 1 ± 0.1 %ID/mL
- tissue uptake per volume at 48 h (In vivo SPECT/CT imaging): 0.8 ± 0.1 %ID/mL
- tissue uptake per volume at 72 h (In vivo SPECT/CT imaging): 0.6 ± 0.1 %ID/mL
- SPECT quantification, kidneys (K), 4 h ([3]; 4 h post-injection): 14.8 ± 1.2 % ID/mL
- SPECT quantification, kidneys (K), 24 h ([3]; 24 h post-injection): 7.5 ± 0.4 % ID/mL
- SPECT quantification, kidneys (K), 48 h ([3]; 48 h post-injection): 4.3 ± 0.3 % ID/mL
- SPECT quantification, kidneys (K), 72 h ([3]; 72 h post-injection): 3.1 ± 0.5 % ID/mL
- Protein-Bound Fraction (%) (human albumin): 56.3 ± 1.4%
Compound: COc1ccc(CCCC(=O)NCCCC[C@H](NC(=O)CN2CCN(CC(=O)O)CCN(CC(=O)O)CCN(CC(=O)O)CC2)C(=O)N[C@@H](Cc2ccc(Cl)cc2)C(=O)N[C@@H]2CSSC[C@@H](C(=O)N[C@H](Cc3ccc(O)cc3)C(N)=O)NC(=O)[C@H]([C@@H](C)O)NC(=O)[C@H](CCCCN)NC(=O)[C@@H](Cc3ccc(NC(N)=O)cc3)NC(=O)[C@H](Cc3ccc(NC(=O)[C@@H]4CC(=O)NC(=O)N4)cc3)NC2=O)cc1 [[^177Lu]Lu-8b, metal not drawn] ({DOTA}-K(Butanoyl(4-(4-MeO-phenyl)))[Phe(4-Cl)][dC][Phe(4-NH2)](Dihydroorotyl(S))[dPhe(4-NHCONH2)]KTC[dY]-NH2; disulfide 3-8)

- IC50 [1]: 130 ± 0.3 nM
Compound: COc1ccc(CCCC(=O)NCCCC[C@H](NC(=O)CN2CCN(CC(=O)O)CCN(CC(=O)O)CCN(CC(=O)O)CC2)C(=O)N[C@@H](Cc2ccc(Cl)cc2)C(=O)N[C@@H]2CSSC[C@@H](C(=O)N[C@H](Cc3ccc(O)cc3)C(N)=O)NC(=O)[C@H]([C@@H](C)O)NC(=O)[C@H](CCCCN)NC(=O)[C@@H](Cc3ccc(NC(N)=O)cc3)NC(=O)[C@H](Cc3ccc(NC(=O)[C@@H]4CC(=O)NC(=O)N4)cc3)NC2=O)cc1 [8b, DOTA-Lys(4-(p-methoxyphenyl)butyryl)-Phe(4-Cl)-c[D-Cys-Aph(Hor)-D-Aph(Cbm)-Lys-Thr-Cys]-D-Tyr-NH2] ({DOTA}-K(Butanoyl(4-(4-MeO-phenyl)))[Phe(4-Cl)][dC][Phe(4-NH2)](Dihydroorotyl(S))[dPhe(4-NHCONH2)]KTC[dY]-NH2; disulfide 3-8)
